Measured values reported in ChEMBL document CHEMBL2057086, “3-Bromo-3-deazaneplanocin and 3-bromo-3-deazaaristeromycin: synthesis and antiviral activity” (Bioorg Med Chem Lett, 2012).
Active and inactive are the calls of the source. The calls are words filed in the database; no cut-off is given here.

Columns and labels:
[1] = tested on: Cytomegalovirus; experiment: Antiviral activity against Cytomegalovirus infected in HEL assessed as reduction of viral replication; type: functional, organism-based; details: Human betaherpesvirus 5
[2] = tested on: Tacaribe virus; experiment: Antiviral activity against Tacaribe virus infected in african green monkey Vero 76 cells assessed as reduction of viral replication; type: functional, organism-based; details: Mammarenavirus tacaribeense
[3] = tested on: Influenza A virus; experiment: Antiviral activity against Influenza A virus H1N1 infected in MDCK cells assessed as reduction of viral replication; type: functional, organism-based
[4] = Selectivity index, ratio of CC50 for african green monkey Vero cells to EC50 for Dengue virus; type: toxicity, cell-based; details: read-out: Selectivity Index
[5] = Selectivity index, ratio of CC50 for african green monkey Vero 76 cells to EC50 for Rift Valley fever virus; type: toxicity, cell-based; details: read-out: Selectivity Index
[6] = tested on: Influenza A virus; experiment: Antiviral activity against Influenza A virus H5N1 infected in MDCK cells assessed as reduction of viral replication; type: functional, organism-based
[7] = Selectivity index, ratio of minimum compound concentration required to cause microscopically detectable alteration of normal cell morphology for human HeLa cells to EC50 for Vaccinia virus; type: toxicity, cell-based; details: read-out: Selectivity Index
[8] = tested on: Rift Valley fever virus; experiment: Antiviral activity against Rift Valley fever virus infected in african green monkey Vero 76 cells assessed as reduction of viral replication; type: functional, organism-based
[9] = Cytotoxicity against african green monkey Vero 76 cells assessed as reduction of cell viability; type: cell-based; details: chlorocebus sabaeus
[10] = Selectivity index, ratio of CC50 for MDCK cells to EC50 for Influenza B virus; type: toxicity, cell-based; details: dog, read-out: Ratio CC50/EC50
[11] = tested on: Hepatitis C virus; experiment: Antiviral activity against Hepatitis C virus infected in human AVA5 cells assessed as reduction of viral replication; type: functional, organism-based; details: Hepacivirus hominis
[12] = Selectivity index, ratio of CC50 for HEL to EC50 Cytomegalovirus
[13] = Cytotoxicity against african green monkey Vero cells assessed as reduction of cell viability; type: cell-based; details: chlorocebus sabaeus
[14] = tested on: SARS-CoV; experiment: Antiviral activity against SARS coronavirus infected in african green monkey Vero cells assessed as reduction of viral replication; type: functional, organism-based; details: Severe acute respiratory syndrome-related coronavirus
[15] = tested on: Venezuelan equine encephalitis virus; experiment: Antiviral activity against Venezuelan equine encephalitis virus infected in african green monkey Vero cells assessed as reduction of viral replication; type: functional, organism-based
[16] = tested on: West Nile virus; experiment: Antiviral activity against West Nile virus infected in african green monkey Vero cells assessed as reduction of viral replication; type: functional, organism-based
[17] = tested on: Influenza B virus; experiment: Antiviral activity against Influenza B virus infected in MDCK cells assessed as reduction of viral replication; type: functional, organism-based
[18] = tested on: Influenza A virus; experiment: Antiviral activity against Influenza A virus H3N2 infected in MDCK cells assessed as reduction of viral replication; type: functional, organism-based
[19] = Cytotoxicity against human HeLa assessed as minimum compound concentration required to cause microscopically detectable alteration of normal cell morphology; type: cell-based; details: HeLa cells, read-out: Activity
[20] = Selectivity index, ratio of CC50 for african green monkey Vero 76 cells to EC50 for Tacaribe virus; type: toxicity, cell-based; details: read-out: Selectivity Index
[21] = tested on: Dengue virus; experiment: Antiviral activity against Dengue virus infected in african green monkey Vero cells assessed as reduction of viral replication; type: functional, organism-based
[22] = tested on: Vaccinia virus; experiment: Antiviral activity against Vaccinia virus infected in human HeLa cells assessed as reduction of viral replication; type: functional, organism-based; details: Orthopoxvirus vaccinia
[23] = Cytotoxicity against HEL assessed as reduction of cell viability; type: cell-based; details: human, HEL cells
[24] = Selectivity index, ratio of CC50 for MDCK cells to EC50 for Influenza A virus H5N1; type: toxicity, cell-based; details: dog, read-out: Ratio CC50/EC50
[25] = Cytotoxicity against MDCK cells assessed as reduction of cell viability; type: cell-based, Canis lupus familiaris; details: dog
[26] = tested on: Respiratory syncytial virus; experiment: Antiviral activity against Respiratory syncytial virus infected in […] cells assessed as reduction of viral replication; type: functional, organism-based
[27] = Selectivity index, ratio of CC50 for african green monkey Vero cells to EC50 for Yellow fever virus; type: toxicity, cell-based; details: read-out: Ratio CC50/EC50
[28] = tested on: Yellow fever virus; experiment: Antiviral activity against Yellow fever virus infected in african green monkey Vero cells assessed as reduction of viral replication; type: functional, organism-based
[29] = Selectivity index, ratio of CC50 for african green monkey Vero cells to EC50 for Measles virus; type: toxicity, cell-based; details: read-out: Ratio CC50/EC50
[30] = tested on: Measles morbillivirus; experiment: Antiviral activity against Measles virus infected in african green monkey Vero cells assessed as reduction of viral replication; type: functional, organism-based
[31] = tested on: Feline coronavirus; experiment: Antiviral activity against Feline coronavirus assessed as reduction of viral replication; type: functional, organism-based
[32] = tested on: Human alphaherpesvirus 2; experiment: Antiviral activity against HSV-2 infected in HEL assessed as reduction of viral replication; type: functional, organism-based
[33] = tested on: Vesicular stomatitis virus; experiment: Antiviral activity against Vesicular stomatitis virus infected in human HeLa cells assessed as reduction of viral replication; type: functional, organism-based
[34] = Selectivity index, ratio of CC50 for human Akata cells to EC50 for Epstein-Barr virus; type: toxicity, cell-based; details: read-out: Selectivity Index
[35] = tested on: Human gammaherpesvirus 4; experiment: Antiviral activity against Epstein-Barr virus infected in human Akata cells assessed as reduction of viral replication; type: functional, organism-based; details: human gammaherpesvirus 4, Akata
[36] = tested on: Felid alphaherpesvirus 1; experiment: Antiviral activity against Feline herpesvirus infected in cat CRFK cells assessed as reduction of viral replication; type: functional, organism-based; details: Felid alphaherpesvirus 1, CRFK
[37] = tested on: Cowpox virus; experiment: Antiviral activity against Cowpox virus infected in HFF cells assessed as reduction of viral replication; type: functional, organism-based
[38] = Selectivity index, ratio of CC50 for cat CRFK cells to EC50 for Feline herpesvirus; type: toxicity, cell-based; details: read-out: Selectivity Index
[39] = Selectivity index, ratio of CC50 for MDCK cells to EC50 for Influenza A virus H1N1; type: toxicity, cell-based; details: dog, read-out: Ratio CC50/EC50
[40] = Selectivity index, ratio of CC50 for MDCK cells to EC50 for Influenza A virus H3N2; type: toxicity, cell-based; details: dog, read-out: Ratio CC50/EC50
[41] = Cytotoxicity against cat CRFK cells assessed as reduction of cell viability; type: cell-based, Felis catus
[42] = Selectivity index, ratio of CC50 for african green monkey Vero cells to EC50 for Pichinde virus; type: toxicity, cell-based; details: read-out: Selectivity Index
[43] = Selectivity index, ratio of CC50 for african green monkey Vero 76 cells to EC50 for Punta Toro virus; type: toxicity, cell-based; details: read-out: Selectivity Index
[44] = tested on: Human respirovirus 3; experiment: Antiviral activity against Parainfluenza-3 virus infected in african green monkey Vero cells assessed as reduction of viral replication; type: functional, organism-based; details: Human respirovirus 3, Vero
[45] = tested on: Pichinde virus; experiment: Antiviral activity against Pichinde virus infected in african green monkey Vero cells assessed as reduction of viral replication; type: functional, organism-based
[46] = tested on: Junin virus; experiment: Antiviral activity against Junin virus infected in african green monkey Vero cells assessed as reduction of viral replication; type: functional, organism-based; details: Mammarenavirus juninense
[47] = tested on: Punta Toro virus; experiment: Antiviral activity against Punta Toro virus infected in african green monkey Vero 76 cells assessed as reduction of viral replication; type: functional, organism-based
[48] = tested on: Human alphaherpesvirus 1; experiment: Antiviral activity against HSV-1 infected in HEL assessed as reduction of viral replication; type: functional, organism-based
[49] = tested on: Coxsackievirus B4; experiment: Antiviral activity against Coxsackievirus B4 virus infected in african green monkey Vero cells assessed as reduction of viral replication; type: functional, organism-based
[50] = tested on: Hepatitis B virus; experiment: Antiviral activity against HBV infected in human HepG2(2.2.15) cells assessed as reduction of viral replication; type: functional, organism-based
[51] = tested on: Sindbis virus; experiment: Antiviral activity against Sindbis virus infected in african green monkey Vero cells assessed as reduction of viral replication; type: functional, organism-based
[52] = Selectivity index, ratio of CC50 for african green monkey Vero cells to EC50 for Junin virus; type: toxicity, cell-based; details: read-out: Selectivity Index
[53] = Cytotoxicity against african green monkey Vero cells assessed as minimum compound concentration required to cause microscopically detectable alteration of normal cell morphology; type: cell-based; details: chlorocebus sabaeus, read-out: Activity
[54] = Cytotoxicity against human Akata cells assessed as reduction of cell viability; type: cell-based
[55] = tested on: Mammalian orthoreovirus 1; experiment: Antiviral activity against Reovirus 1 infected in african green monkey Vero cells assessed as reduction of viral replication; type: functional, organism-based

Q: Which EC50 [1] does the source give for Nc1ncc(Br)c2c1ncn2[C@@H]1C[C@H](CO)[C@@H](O)[C@H]1O here?
A: 3500 nM

Q: What about the EC50 [2] of the same molecule?
A: 9900 nM

Q: What about the EC50 [3] of the same molecule?
A: > 290000 nM

Q: What about the selectivity ratio [4] of the same molecule?
A: 2

Q: And the selectivity ratio [5]?
A: > 5

Q: And the EC50 [6]?
A: 1140 nM

Q: And the selectivity ratio [7]?
A: > 1.3

Q: What about the EC50 [8] of the same molecule?
A: 58300 nM

Q: And the CC50 [9]?
A: > 79000 nM

Q: What about the selectivity ratio [10] of the same molecule?
A: > 340

Q: What about the Activity [11] of the same molecule?
A: inactive

Q: What about the “Ratio CC50/EC50” value [12] of the same molecule?
A: 23

Q: And the CC50 [13]?
A: 70000 nM

Q: And the Activity [14]?
A: inactive

Q: What about the Activity [15] of the same molecule?
A: inactive

Q: And the Activity [16]?
A: inactive

Q: What about the EC50 [17] of the same molecule?
A: 840 nM

Q: And the EC50 [18]?
A: > 290000 nM

Q: And the MCC [19]?
A: > 300 µM

Q: What about the selectivity ratio [20] of the same molecule?
A: 7.9

Q: What about the EC50 [21] of the same molecule?
A: 93000 nM

Q: And the EC50 [22]?
A: 230000 nM

Q: What about the CC50 [23] of the same molecule?
A: 80000 nM

Q: And the selectivity ratio [24]?
A: > 260

Q: And the CC50 [25]?
A: > 290000 nM

Q: What about the Activity [26] of the same molecule?
A: inactive

Q: And the selectivity ratio [27]?
A: 9.7

Q: And the EC50 [28]?
A: 19000 nM

Q: And the selectivity ratio [29]?
A: 4.3

Q: And the EC50 [30]?
A: 16000 nM

Q: For Nc1ncc(Br)c2c1ncn2[C@@H]1C=C(CO)[C@@H](O)[C@H]1O, which Activity [31] is on record?
A: inactive

Q: And the Activity [32]?
A: inactive

Q: What about the EC50 [33] of the same molecule?
A: 400 nM

Q: What about the EC50 [2] of the same molecule?
A: < 94 nM

Q: What about the EC50 [3] of the same molecule?
A: < 94 nM

Q: And the selectivity ratio [4]?
A: 57

Q: What about the selectivity ratio [5] of the same molecule?
A: 250

Q: And the selectivity ratio [34]?
A: < 4.3

Q: And the EC50 [6]?
A: 940 nM

Q: And the EC50 [35]?
A: > 30 nM

Q: What about the EC50 [36] of the same molecule?
A: 200 nM

Q: And the Activity [37]?
A: inactive

Q: And the selectivity ratio [38]?
A: 470

Q: What about the EC50 [8] of the same molecule?
A: < 94 nM

Q: What about the CC50 [9] of the same molecule?
A: 23200 nM

Q: What about the selectivity ratio [10] of the same molecule?
A: < 7

Q: What about the CC50 [13] of the same molecule?
A: 15200 nM

Q: What about the selectivity ratio [39] of the same molecule?
A: > 2340

Q: What about the selectivity ratio [40] of the same molecule?
A: > 190

Q: What about the CC50 [41] of the same molecule?
A: 94000 nM

Q: And the selectivity ratio [42]?
A: 24

Q: And the selectivity ratio [43]?
A: 140

Q: And the EC50 [44]?
A: 500 nM

Q: What about the Activity [15] of the same molecule?
A: inactive

Q: What about the Activity [16] of the same molecule?
A: inactive

Q: What about the EC50 [17] of the same molecule?
A: > 160 nM

Q: And the EC50 [18]?
A: 1550 nM

Q: What about the MCC [19] of the same molecule?
A: ≥ 100 µM

Q: And the selectivity ratio [20]?
A: > 2000

Q: What about the EC50 [45] of the same molecule?
A: 1200 nM

Q: And the EC50 [21]?
A: 2900 nM

Q: What about the EC50 [22] of the same molecule?
A: 500 nM

Q: What about the EC50 [46] of the same molecule?
A: 94 nM

Q: And the EC50 [47]?
A: 250 nM

Q: And the Activity [48]?
A: inactive

Q: And the Activity [49]?
A: inactive

Q: And the selectivity ratio [24]?
A: > 310

Q: What about the Activity [50] of the same molecule?
A: inactive

Q: What about the CC50 [25] of the same molecule?
A: 1100 nM

Q: And the Activity [51]?
A: inactive

Q: And the selectivity ratio [52]?
A: 160

Q: And the MCC [53]?
A: > 100 µM

Q: What about the CC50 [54] of the same molecule?
A: 130 nM

Q: And the Activity [55]?
A: inactive
